Where “and” joins values, the source holds several entries; their conditions need not be identical. Equal values may be shown once.
How the values were obtained:
[1] = test system: neonatal rat ventricular cardiomyocytes (NVCM); experiment: Protection against DAU-induced cytotoxicity (LDH release) in NVCM; type: cell-based; conditions: for LDH release: independent replicates
Outline: (§1)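 Primary neonatal Wistar rat cardiomyocytes in serum- and pyruvate-free DMEM/F12 were pretreated with compound 3 h, then co-incubated 3 h with DAU (1.2 µM), or without DAU for inherent toxicity, then given a 48 h drug-free follow-up. Medium LDH activity (NAD+ reduction at 340 nm) expressed as % of total LDH.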

[2] = test system: neonatal rat ventricular cardiomyocytes (NVCM); experiment: Inherent toxicity (LDH release) in NVCM; type: cell-based; parameters: key to LDH release (inherent toxicity), mean of independent replicates: % of total LDH activity; conditions: for LDH release (inherent toxicity), mean of independent replicates: Suppl.Fig.6c
Outline: as §1

[3] = test system: caspase 9; experiment: Caspase 9 activity in NVCM (Caspase-Glo); type: cell-based, rat; conditions: for Csp9 activity: independent replicates
Description: Caspase activity was assessed on NVCM cells using luciferase-based kits for caspase 3/7, 8 and 9 (Caspase-Glo® 3/7, 8 and 9 assay systems; Promega) according to the manufacturer’s instructions on 384-well plates (Greiner Bio-One). Luminescence signal was measured using Tecan M200 multifunctional plate-reader. All measured groups were corrected for total protein concentration (BCA assay) and were expressed as fold change of the signal over corresponding untreated control group. Each presented data point was obtained from distinct sample. Statistical significance was determined using ratio paired t-test, two-tailed.

[4] = test system: γH2AX; experiment: γH2AX levels in HL-60 cells (Western blotting); type: cell-based, human; conditions: for γH2AX level, mean of independent replicates: DAU mean = 100, Suppl.Fig.8d
[5] = test system: γH2AX; experiment: Acute DAU-induced DNA damage (γH2AX) in rabbit LV myocardium; type: in vivo; parameters: γH2AX in LV myocardium: scale not given here; conditions: for γH2AX in LV myocardium: individual animals
Description: For the determination of γH2aX protein in in vivo experiments, pulverized rabbit LV samples were homogenized in commercial 1× SDS Lysis Buffer (PhosphoSolutions) with phosphatase and protease inhibitor solutions (Thermo Fisher Scientific and Roche, respectively) and boiled at 95 °C for 10 min. Protein concentrations were assessed by the BCA Protein Assay Kit (Sigma-Aldrich), and 85 μg of protein were loaded into Mini-PROTEAN 12% TGX Precast Stain-free Gel (Bio-Rad). After separation, the proteins were transferred onto a nitrocellulose membrane using a Trans-Blot Turbo System (all Bio-Rad). Mouse monoclonal anti-γH2AX (1:800, ab26350, Abcam) was used as the primary antibody, and horseradish peroxidase-conjugated goat anti-mouse immunoglobulin (1:1000, P044701, DAKO) was used as the secondary antibody. The BM Chemiluminescence Blotting Substrate (Roche) and Fusion Solo S coupled with CCD camera (Vilber) were used for signal detection.
Rabbits (n = 24) were divided equally into four groups (n = 6 in each) receiving a single dose as follows: DAU (3 mg/kg, i.v. bolus), saline (1 ml/kg, i.v., the control group), topobexin (9) alone (10 mg/kg, prepared and administered as describe above in the pharmacokinetic study, i.e., in 20 min i.v. infusion) and the combination group (topobexin (9) 10 mg/kg via 20 min i.v. infusion followed by DAU 3 mg/kg as i.v. bolus into the contralateral ear 40 min after the end of topobexin (9) infusion). Based on preliminary data, the experiment was completed 90 min after administration of DAU or saline. The heart was excised and γH2AX as a marker of DNA damage was determined in myocardial homogenates using Western blotting as described above.

## CCCc1cc(=O)oc2c(C(=O)N3CCCc4ccccc43)c(OCCN3CCN(C)CC3)ccc12 [topobexin (9)]
[1]; NVCM, DAU 1.2 µM
  concentration providing significant cardioprotection: ≥ 1 µM
[1]; Rattus norvegicus, Cardiomyocyte, NVCM, protection against DAU 1.2 µM, n=4, read-out: LEC = lowest effective concentration
  minimal effective concentration: 1 µM
[1]; compound 0.01 µM + DAU 1.2 µM
  LDH release, mean: 39.6717 % of total LDH
  LDH release: 48.3922 % of total LDH and 39.9759 % of total LDH and 35.5793 % of total LDH and 34.7393 % of total LDH
[1]; compound 0.01 µM + DAU 1.2 µM, NVCM, Suppl.Fig.6b
  LDH release (protection against DAU), mean of independent replicates: 39.6717
[1]; compound 0.1 µM + DAU 1.2 µM
  LDH release, mean: 37.5382 % of total LDH
  LDH release: 40.1489 % of total LDH and 41.381 % of total LDH and 32.4516 % of total LDH and 36.1711 % of total LDH
[1]; compound 0.1 µM + DAU 1.2 µM, NVCM, Suppl.Fig.6b
  LDH release (protection against DAU), mean of independent replicates: 37.5382
[1]; compound 0.1 µM + DAU 1.2 µM, NVCM, Suppl.Fig.8a
  LDH release (protection against DAU), mean of independent replicates: 42.825
[1]; compound 1 µM + DAU 1.2 µM
  LDH release, mean: 29.7613 % of total LDH
  LDH release: 32.8929 % of total LDH and 30.456 % of total LDH and 27.486 % of total LDH and 28.2102 % of total LDH
[1]; compound 1 µM + DAU 1.2 µM, NVCM, Suppl.Fig.6b
  LDH release (protection against DAU), mean of independent replicates: 29.7613
[1]; compound 1 µM + DAU 1.2 µM, NVCM, Suppl.Fig.8a
  LDH release (protection against DAU), mean of independent replicates: 37.7816
[1]; compound 10 µM + DAU 1.2 µM
  LDH release, mean: 24.2662 % of total LDH
  LDH release: 28.5774 % of total LDH and 24.8184 % of total LDH and 21.0698 % of total LDH and 22.5992 % of total LDH
[1]; compound 10 µM + DAU 1.2 µM, NVCM, Suppl.Fig.6b
  LDH release (protection against DAU), mean of independent replicates: 24.2662
[1]; compound 10 µM + DAU 1.2 µM, NVCM, Suppl.Fig.8a
  LDH release (protection against DAU), mean of independent replicates: 30.0056
[1]; compound 30 µM + DAU 1.2 µM
  LDH release, mean: 25.2224 % of total LDH
  LDH release: 28.8537 % of total LDH and 23.9613 % of total LDH and 20.3957 % of total LDH and 27.679 % of total LDH
[1]; compound 30 µM + DAU 1.2 µM, NVCM, Suppl.Fig.6b
  LDH release (protection against DAU), mean of independent replicates: 25.2224
[1]; compound 100 µM + DAU 1.2 µM
  LDH release, mean: 26.7487 % of total LDH
  LDH release: 31.0584 % of total LDH and 27.7033 % of total LDH and 21.5053 % of total LDH and 26.728 % of total LDH
[1]; compound 100 µM + DAU 1.2 µM, NVCM, Suppl.Fig.6b
  LDH release (protection against DAU), mean of independent replicates: 26.7487
[1]; compound 100 µM + DAU 1.2 µM, NVCM, Suppl.Fig.8a
  LDH release (protection against DAU), mean of independent replicates: 32.5863
[1]; side-by-side comparison with dexrazoxane (Supp Fig 8a)
  lowest concentration with statistically significant cytoprotective effects: 0.1 µM
[2]; NVCM, compound alone, n=4
  LTC = lowest toxic concentration: > 100 µM
[2]; compound 100 µM alone
  LDH release, mean: 16.49 % of total LDH
[2]; compound 100 µM alone, independent replicates
  LDH release: 16.0714 % of total LDH and 14.563 % of total LDH and 13.722 % of total LDH and 21.6038 % of total LDH
[2]; compound alone 0.01 µM, NVCM
  LDH release (inherent toxicity), mean of independent replicates: 15.0001
[2]; compound alone 0.1 µM, NVCM
  LDH release (inherent toxicity), mean of independent replicates: 13.7512
[2]; compound alone 1 µM, NVCM
  LDH release (inherent toxicity), mean of independent replicates: 12.2924
[2]; compound alone 10 µM, NVCM
  LDH release (inherent toxicity), mean of independent replicates: 14.4604
[2]; compound alone 30 µM, NVCM
  LDH release (inherent toxicity), mean of independent replicates: 15.0547
[2]; compound alone 100 µM, NVCM
  LDH release (inherent toxicity), mean of independent replicates: 16.49
[3]; Cmpd 9 10 μM + DAU 1.2 μM
  Csp9 activity, mean: 1.834 fold change
  Csp9 activity: 1.395 fold change and 1.389 fold change and 2.498 fold change and 1.26 fold change and 2.708 fold change and 1.753 fold change
[3]; Cmpd 9 10 μM alone
  Csp9 activity, mean: 0.9606 fold change
  Csp9 activity: 0.8436 fold change and 1.03 fold change and 0.994 fold change and 0.6408 fold change and 0.974 fold change and 1.282 fold change
[4]; HL-60, DAU, highest concentration tested
  concentration with statistically significant decrease in γH2AX levels: 10 µM
[4]; compound 0.1 µM + DAU 1.2 µM
  γH2AX level, mean of independent replicates: 85.0292
[4]; compound 0.3 µM + DAU 1.2 µM
  γH2AX level, mean of independent replicates: 71.0118
[4]; compound 1 µM + DAU 1.2 µM
  γH2AX level, mean of independent replicates: 59.3884
[4]; compound 3 µM + DAU 1.2 µM
  γH2AX level, mean of independent replicates: 59.6746
[4]; compound 10 µM + DAU 1.2 µM
  γH2AX level, mean of independent replicates: 31.6085
[4]; compound alone 0.1 µM
  γH2AX level, mean of independent replicates: 21.4098
[4]; compound alone 0.3 µM
  γH2AX level, mean of independent replicates: 25.2396
[4]; compound alone 1 µM
  γH2AX level, mean of independent replicates: 23.449
[4]; compound alone 3 µM
  γH2AX level, mean of independent replicates: 19.8181
[4]; compound alone 10 µM
  γH2AX level, mean of independent replicates: 24.2375
[5]; 10 mg/kg before DAU 3 mg/kg, 1.5 h after DAU
  DAU-induced DNA damage (γH2AX) in LV myocardium: effectively prevent induction of DNA damage
[5]; Topobexin alone 10 mg/kg
  γH2AX in LV myocardium: 1.55 and 1.42 and 1.45 and 1.03 and 1.17 and 1.33
[5]; Topobexin+DAU
  γH2AX in LV myocardium: 1.79 and 1.30 and 1.64 and 0.82 and 1.38 and 2.72

From PMC12116762, “Topobexin targets the Topoisomerase II ATPase domain for beta isoform-selective inhibition and anthracycline cardioprotection” (Nature Communications, 2025)
